Measurements as given in patent US12442042B2, “Epigenomic profiling reveals the somatic promoter landscape of primary gastric adenocarcinoma” (AGENCY FOR SCIENCE, TECHNOLOGY AND RESEARCH, priority 2016, dated 2025).

Tested on: PBMCs
Assay: EpiMAX assay: cytokine multiplex on supernatants of PBMCs stimulated with peptide pools
Assay type: cell-based, human
Description: A set of peptides for 15 representative alternative promoters was purchased from GenScript (GenScript). Peptide sequences and composition of peptide pools for each alternative promoter are described in Table 3. Control peptide pools for human Actin were purchased from JPT (PM-ACTS, PepMix™ Human (Actin) JPT). Peripheral blood mononuclear cells (PBMCs) were obtained from 9 healthy volunteers of whom 8 PBMC samples were HLA-typed (Table 3).
PBMCs were labelled with 1 μM CFSE (Life Technologies, Thermo Fisher Scientific) and cultured at a density of 200,000 cells per well in complete culture medium (cRPMI comprising RPMI 1640 medium (Gibco, Thermo Fisher Scientific), 15 mM HEPES (Gibco), 1% non-essential amino acid (Gibco), 1 mM sodium pyruvate (Gibco), 1% penicillin/streptomycin (Gibco), 2 mM L-glutamine (Gibco), 50 μM β2-mercaptoethanol (Sigma, Merck), and 10% heat-inactivated FCS (Hyclone)) for 5 days. Individual peptide pools of each alternative promoter were added at the start of the culture at a concentration of 1 μg/ml for each peptide. At the end of day 5, cells were stained with LIVE/DEAD® fixable near-IR dead cell stain kit (Life Technologies), and labelled with CD4-BUV737 (BD), CD8-PacificBlue (BD), CD3-PE (BioLegend), CD19-PE/TexasRed (Beckman), and CD56-APC (BD). Analysis of T cell proliferation by CFSE dilution was performed by flow cytometry using a LSRII (BD). In addition, magnetic bead-based cytokine multiplex analysis (human cytokine panel 1, Millipore, Merck) was performed on cell culture supernatants to measure secreted cytokine levels.

[1] = Donor 1 PBMCs stimulated with peptide pool
[2] = Donor 2 PBMCs stimulated with peptide pool
[3] = Donor 3 PBMCs stimulated with peptide pool
[4] = Donor 4 PBMCs stimulated with peptide pool
[5] = Donor 5 PBMCs stimulated with peptide pool
[6] = Donor 6 PBMCs stimulated with peptide pool
[7] = Donor 7 PBMCs stimulated with peptide pool
[8] = Donor 8 PBMCs stimulated with peptide pool
[9] = Donor 9 PBMCs stimulated with peptide pool

Actin was tested, and the “Analyte concentration GM-CSF” value [1] was 19.57 pg/mL, the “Analyte concentration IFNg” value [1] was 147.18 pg/mL and the “Analyte concentration IL-2” value [1] was 34.21 pg/mL. For the same substance, the “Analyte concentration IL-3” value [1] was 1.46 pg/mL, the “Analyte concentration IL-4” value [1] was 0.03 pg/mL and the “Analyte concentration IL-7” value [1] was 0.085 pg/mL. The “Analyte concentration IL-9” value [1] was 1.22 pg/mL, the “Analyte concentration IL-10” value [1] was 10.1 pg/mL and the “Analyte concentration IL-13” value [1] was 14.2 pg/mL. The “Analyte concentration IL-15” value [1] was 0.925 pg/mL, the “Analyte concentration IL-17A” value [1] was 0.02 pg/mL and the “Analyte concentration TNFa” value [1] was 101.44 pg/mL. The “Analyte concentration sCD40L” value [1] was 0.78 pg/mL, the “Fold change of total cytokine response (normalized against Actin control)” value (from here on “Fold change … (normalized against Actin control)”) [1] was 1.00 and the Total analytes [1] was 331.40 pg/mL. For the same substance, the “Analyte concentration GM-CSF” value [2] was 15.58 pg/mL, the “Analyte concentration IFNg” value [2] was 7.71 pg/mL and the “Analyte concentration IL-2” value [2] was 11.28 pg/mL. For the same substance, the “Analyte concentration IL-3” value [2] was 0.76 pg/mL, the “Analyte concentration IL-4” value [2] was 0.03 pg/mL and the “Analyte concentration IL-7” value [2] was 1.73 pg/mL. For the same substance, the “Analyte concentration IL-9” value [2] was 1.22 pg/mL, the “Analyte concentration IL-10” value [2] was 5.29 pg/mL and the “Analyte concentration IL-13” value [2] was 13.75 pg/mL. For the same substance, the “Analyte concentration IL-15” value [2] was 0.925 pg/mL, the “Analyte concentration IL-17A” value [2] was 0.02 pg/mL and the “Analyte concentration TNFa” value [2] was 9.18 pg/mL. The “Analyte concentration sCD40L” value [2] was 1.81 pg/mL, the “Fold change … (normalized against Actin control)” value [2] was 1.00 and the Total analytes [2] was 69.29 pg/mL. For the same substance, the “Analyte concentration GM-CSF” value [3] was 56.66 pg/mL, the “Analyte concentration IFNg” value [3] was 60.86 pg/mL and the “Analyte concentration IL-2” value [3] was 13.4 pg/mL. For the same substance, the “Analyte concentration IL-3” value [3] was 0.56 pg/mL, the “Analyte concentration IL-4” value [3] was 4.53 pg/mL and the “Analyte concentration IL-7” value [3] was 0.085 pg/mL. The “Analyte concentration IL-9” value [3] was 1.22 pg/mL, the “Analyte concentration IL-10” value [3] was 2.56 pg/mL and the “Analyte concentration IL-13” value [3] was 5.96 pg/mL. For the same substance, the “Analyte concentration IL-15” value [3] was 0.925 pg/mL, the “Analyte concentration IL-17A” value [3] was 2.89 pg/mL and the “Analyte concentration TNFa” value [3] was 20.69 pg/mL. The “Analyte concentration sCD40L” value [3] was 0.01 pg/mL, the “Fold change … (normalized against Actin control)” value [3] was 1.00 and the Total analytes [3] was 170.35 pg/mL. The “Analyte concentration GM-CSF” value [4] was 0.66 pg/mL, the “Analyte concentration IFNg” value [4] was 0.01 pg/mL and the “Analyte concentration IL-2” value [4] was 1.27 pg/mL. For the same substance, the “Analyte concentration IL-3” value [4] was 0.005 pg/mL, the “Analyte concentration IL-4” value [4] was 0.03 pg/mL and the “Analyte concentration IL-7” value [4] was 0.085 pg/mL. For the same substance, the “Analyte concentration IL-9” value [4] was 1.22 pg/mL, the “Analyte concentration IL-10” value [4] was 0.18 pg/mL and the “Analyte concentration IL-13” value [4] was 0.99 pg/mL. The “Analyte concentration IL-15” value [4] was 0.925 pg/mL, the “Analyte concentration IL-17A” value [4] was 0.02 pg/mL and the “Analyte concentration TNFa” value [4] was 1.49 pg/mL. The “Analyte concentration sCD40L” value [4] was 0.01 pg/mL, the “Fold change … (normalized against Actin control)” value [4] was 1.00 and the Total analytes [4] was 6.90 pg/mL. For the same substance, the “Analyte concentration GM-CSF” value [5] was 0.66 pg/mL, the “Analyte concentration IFNg” value [5] was 1.65 pg/mL and the “Analyte concentration IL-2” value [5] was 1.4 pg/mL. The “Analyte concentration IL-3” value [5] was 0.005 pg/mL, the “Analyte concentration IL-4” value [5] was 0.03 pg/mL and the “Analyte concentration IL-7” value [5] was 0.085 pg/mL. The “Analyte concentration IL-9” value [5] was 1.22 pg/mL, the “Analyte concentration IL-10” value [5] was 5.5 pg/mL and the “Analyte concentration IL-13” value [5] was 1.44 pg/mL. For the same substance, the “Analyte concentration IL-15” value [5] was 0.925 pg/mL, the “Analyte concentration IL-17A” value [5] was 0.02 pg/mL and the “Analyte concentration TNFa” value [5] was 3.08 pg/mL. The “Analyte concentration sCD40L” value [5] was 0.01 pg/mL, the “Fold change … (normalized against Actin control)” value [5] was 1.00 and the Total analytes [5] was 16.03 pg/mL. The “Analyte concentration GM-CSF” value [6] was 18.18 pg/mL, the “Analyte concentration IFNg” value [6] was 135.48 pg/mL and the “Analyte concentration IL-2” value [6] was 11.03 pg/mL. For the same substance, the “Analyte concentration IL-3” value [6] was 0.5 pg/mL, the “Analyte concentration IL-4” value [6] was 0.03 pg/mL and the “Analyte concentration IL-7” value [6] was 0.085 pg/mL. For the same substance, the “Analyte concentration IL-9” value [6] was 1.22 pg/mL, the “Analyte concentration IL-10” value [6] was 4.66 pg/mL and the “Analyte concentration IL-13” value [6] was 8.77 pg/mL. For the same substance, the “Analyte concentration IL-15” value [6] was 0.925 pg/mL, the “Analyte concentration IL-17A” value [6] was 2.22 pg/mL and the “Analyte concentration TNFa” value [6] was 38.39 pg/mL. The “Analyte concentration sCD40L” value [6] was 0.01 pg/mL, the “Fold change … (normalized against Actin control)” value [6] was 1.00 and the Total analytes [6] was 222.13 pg/mL. The “Analyte concentration GM-CSF” value [7] was 3.31 pg/mL, the “Analyte concentration IFNg” value [7] was 6.53 pg/mL and the “Analyte concentration IL-2” value [7] was 0.77 pg/mL. For the same substance, the “Analyte concentration IL-3” value [7] was 0.01 pg/mL, the “Analyte concentration IL-4” value [7] was 0.03 pg/mL and the “Analyte concentration IL-7” value [7] was 2.29 pg/mL. The “Analyte concentration IL-9” value [7] was 1.22 pg/mL, the “Analyte concentration IL-10” value [7] was 7.7 pg/mL and the “Analyte concentration IL-13” value [7] was 0.14 pg/mL. For the same substance, the “Analyte concentration IL-15” value [7] was 0.925 pg/mL, the “Analyte concentration IL-17A” value [7] was 0.02 pg/mL and the “Analyte concentration TNFa” value [7] was 48.35 pg/mL. For the same substance, the “Analyte concentration sCD40L” value [7] was 0.01 pg/mL, the “Fold change … (normalized against Actin control)” value [7] was 1.00 and the Total analytes [7] was 71.31 pg/mL. The “Analyte concentration GM-CSF” value [8] was 0.66 pg/mL, the “Analyte concentration IFNg” value [8] was 1.12 pg/mL and the “Analyte concentration IL-2” value [8] was 1.9 pg/mL. The “Analyte concentration IL-3” value [8] was 0.22 pg/mL, the “Analyte concentration IL-4” value [8] was 0.03 pg/mL and the “Analyte concentration IL-7” value [8] was 0.085 pg/mL. For the same substance, the “Analyte concentration IL-9” value [8] was 1.22 pg/mL, the “Analyte concentration IL-10” value [8] was 3.61 pg/mL and the “Analyte concentration IL-13” value [8] was 0.03 pg/mL. For the same substance, the “Analyte concentration IL-15” value [8] was 0.925 pg/mL, the “Analyte concentration IL-17A” value [8] was 0.02 pg/mL and the “Analyte concentration TNFa” value [8] was 2.64 pg/mL. For the same substance, the “Analyte concentration sCD40L” value [8] was 0.58 pg/mL, the “Fold change … (normalized against Actin control)” value [8] was 1.00 and the Total analytes [8] was 13.04 pg/mL. The “Analyte concentration GM-CSF” value [9] was 0.66 pg/mL, the “Analyte concentration IFNg” value [9] was 3.49 pg/mL and the “Analyte concentration IL-2” value [9] was 0.77 pg/mL. The “Analyte concentration IL-3” value [9] was 0.36 pg/mL, the “Analyte concentration IL-4” value [9] was 0.03 pg/mL and the “Analyte concentration IL-7” value [9] was 2.01 pg/mL. The “Analyte concentration IL-9” value [9] was 1.22 pg/mL, the “Analyte concentration IL-10” value [9] was 2.13 pg/mL and the “Analyte concentration IL-13” value [9] was 1.05 pg/mL. For the same substance, the “Analyte concentration IL-15” value [9] was 0.925 pg/mL, the “Analyte concentration IL-17A” value [9] was 0.58 pg/mL and the “Analyte concentration TNFa” value [9] was 56.18 pg/mL. The “Analyte concentration sCD40L” value [9] was 0.01 pg/mL, the “Fold change … (normalized against Actin control)” value [9] was 1.00 and the Total analytes [9] was 69.42 pg/mL.
